Test results from ChEMBL document CHEMBL6134883, “Novel Piperidinylpyridinylcarbonitrile Derivatives as QPCT and QPCTL Inhibitors for Treating Cancer” (ACS Med Chem Lett, 2025).

assay: Inhibition of N-terminal His/DDK-tagged recombinant human QPCTL extracted from HEK293T cells using QLLFNKTKSVEFTFC as substrate preincubated for 10 mins followed by substrate addition measured after 40 mins by MALDI-TOF MS analysis; assay type: cell-free

IC50, 1 nM:
Cn1cnnc1C1(F)CCN(c2c(C#N)cc(C(C)(C)O)nc2-c2cnc3nn(C(C)(C)C)c(Cl)c3c2)CC1
Cc1ccccc1-c1ccc2c(-c3nccc(C#N)c3N3CCC(F)(c4nncn4C)CC3)cnn2n1
Cn1cnnc1C1(F)CCN(c2c(C#N)ccnc2-c2cnn3nc(-c4cccc(Cl)c4)ccc23)CC1
Cn1cnnc1C1(F)CCN(c2c(C#N)cc(C(F)(F)F)nc2-c2cnc3nc(C(C)(C)C)oc3c2)CC1
Cc1ccc(-c2ccc3c(-c4nccc(C#N)c4N4CCC(F)(c5nncn5C)CC4)cnn3n2)c(C)c1
Cn1cnnc1C1(F)CCN(c2c(C#N)cc(C3CC3(F)F)nc2-c2cnc3nn(C(C)(C)C)cc3c2)CC1 (stereo unspecified)
